# Legend:
# [1] = test system: M. abscessus Bamboo (smooth morphotype); experiment: Growth inhibition dose response against M. abscessus; format: cell-based; conditions: Mycobacteroides abscessus, 72 h; 3 days, max 500 μM
# [2] = test system: Escherichia coli (ATCC 25922); experiment: Antibacterial growth inhibition, E. coli; format: cell-based; conditions: ATCC25922, twofold serial dilution, max 100 μM, 18 h, read-out: E. coli Growth Inhibition Spectrum (MIC80)
# M. avium 11 = experiment: Growth inhibition dose response against M. avium; format: cell-based; conditions: Mycobacterium avium, 11, 120 h; 5 days, max 500 μM
# [3] = MTS cytotoxicity assay, HepG2; conditions: human, HepG2 cells (ATCC HB.8065)
# [4] = test system: HepG2 (ATCC HB.8065) cells; experiment: MTS cytotoxicity assay, HepG2; conditions: selectivity index vs M. tuberculosis MIC50
# [5] = test system: Staphylococcus aureus (ATCC 43300, MRSA); experiment: microbe, parasite or virus in culture; format: cell-based; conditions: 18 h, read-out: S. aureus Growth Inhibition Spectrum (MIC80)
# [6] = test system: M. bovis BCG (ATCC 35734); experiment: microbe, parasite or virus in culture; format: cell-based; conditions: for MIC50: Mycobacterium tuberculosis variant bovis BCG, 120 h, read-out: M. bovis BCG MIC50, 7H9 broth, 5 days, OD600
# Red blood cells = experiment: Hemolytic activity (red blood cell lysis assay); conditions: for RBC SI: selectivity index vs M. tuberculosis MIC50; for RBC HC50: hemolysis, 24 h in PBS, unit not given, same scale as MIC50, i not defined
# [7] = test system: Acinetobacter baumannii (ATCC 19606); experiment: Antibacterial growth inhibition, A. baumannii; format: cell-based; conditions: ATCC19606, twofold serial dilution, max 100 μM, 18 h, read-out: A. baumannii Growth Inhibition Spectrum (MIC80)
# [8] = test system: Cryptococcus neoformans (ATCC 208821); experiment: Antifungal growth inhibition, C. neoformans; format: cell-based; conditions: ATCC208821, twofold serial dilution, max 100 μM, 24 h, resazurin, read-out: C. neoformans Growth Inhibition Spectrum (MIC80)
# [9] = test system: Pseudomonas aeruginosa (ATCC 27853); experiment: Antibacterial growth inhibition, P. aeruginosa; format: cell-based; conditions: ATCC27853, twofold serial dilution, max 100 μM, 18 h, read-out: P. aeruginosa Growth Inhibition Spectrum (MIC80)
# [10] = MTS cytotoxicity assay, A549; conditions: human, A549 cells (ATCC CCL-185)
# [11] = test system: A549 (ATCC CCL-185) cells; experiment: MTS cytotoxicity assay, A549; conditions: selectivity index vs M. tuberculosis MIC50
# [12] = test system: Klebsiella pneumoniae (ATCC 700603, MDR); experiment: microbe, parasite or virus in culture; format: cell-based; conditions: ATCC700603, 18 h, read-out: K. pneumoniae Growth Inhibition Spectrum (MIC80)
# [13] = test system: Candida albicans (ATCC 90028); experiment: Antifungal growth inhibition, C. albicans; format: cell-based; conditions: ATCC90028, twofold serial dilution, max 100 μM, 24 h, read-out: C. albicans Growth Inhibition Spectrum (MIC80)
# [14] = test system: Mycobacterium tuberculosis H37Rv (ATCC 27294); experiment: Growth inhibition dose response against M. tuberculosis; format: cell-based; conditions: 7H9 broth, OD600, twofold serial dilution from 500 μM
SMILES,MIC50 [1] [µM],MIC80 [2] [µM],MIC50 (M. avium 11) [µM],CC50 [3] [µM],HepG2 SI [4],MIC80 [5] [µM],"M. bovis BCG MIC50 ([6]; 7H9 broth, 5 days, OD600) [µM]",MIC50 [6] [µM],RBC SI (Red blood cells),MIC80 [7] [µM],MIC80 [8] [µM],MIC80 [9] [µM],CC50 [10] [µM],A549 SI [11],MIC80 [12] [µM],MIC80 [13] [µM],MIC50 [14] [µM],RBC HC50 (Red blood cells)
CCNc1nc(C)nc2sc(CC)cc12 [Fragment 1],> 500,> 100,> 500,> 2500,>24,> 100,4.5,5,>24,> 100,> 100,> 100,> 2500,>24,> 100,> 100,40,–
Clc1ccc(Oc2cnns2)c2ncccc12 [Fragment 2],> 500,> 100,130,200,–,> 100,–,56,–,> 100,> 100,> 100,> 2500,>7,> 100,> 100,43,250
COc1cccc2sc(S(C)(=O)=O)nc12 [Fragment 3],> 500,> 100,> 500,–,–,> 100,–,20,>13,> 100,> 100,> 100,–,–,> 100,> 100,52,–
Cc1c(C)n(CC(O)CNC2CCCC2)c2c(Cl)cccc12 (centres unmarked) [Fragment 4],125,> 100,53,45,–,> 100,–,56,–,> 100,> 100,> 100,60,–,> 100,> 100,55,125
O=C(c1cc2cc(F)ccc2s1)N1CCC1 [Fragment 5],> 500,> 100,> 500,> 2500,>41,> 100,–,68,>41,> 100,> 100,> 100,> 2500,>41,> 100,> 100,60,–
N#CSC1C=CS(=O)(=O)C1 (centres unmarked) [Fragment 6],> 500,> 100,> 500,75,–,100,–,53,24,100,> 100,> 100,1000,11,> 100,100,92,2200
COn1c(-c2ccc(Cl)cc2)nc2ncccc21 [Fragment 7],150,> 100,145,850,8,> 100,–,19,>23,> 100,> 100,> 100,1800,17,> 100,> 100,104,–
CC1CC(N)=NN1c1ccc(Cl)cn1 (centres unmarked) [Fragment 8],> 500,100,275,900,7,> 100,–,13,>20,100,> 100,> 100,> 2500,>20,> 100,100,123,–
Cc1nc(-c2c[nH]c3ccccc23)cs1 [Fragment 9],> 500,> 100,> 500,500,4,> 100,–,39,>18,> 100,> 100,> 100,> 2500,>20,> 100,> 100,126,–
Cc1cc2nc(CN)[nH]c2cc1C [Fragment 10],> 500,> 100,> 500,900,7,> 100,–,53,16,> 100,> 100,> 100,1900,15,> 100,> 100,131,2100
